# In patent US20250270208A1, “BICYCLIC HETEROCYCLES AS MRGPRX2 ANTAGONISTS” (Incyte Corporation, priority 2023, published 2025):
# Columns and labels:
# Format in all cases: cell-based
# [1] = biological target: T1, MRGPRX2 (Homo sapiens, UniProt Q96LB1); experiment: MRGPRX2 β-Arrestin assay; parameters: host or cells: PathHunter CHO-K1; settings: PathHunter CHO-K1 MRGPRX2 β-Arrestin cell line; agonist Cortistatin 14 0.25 μM
# T1 sequence (Q96LB1 1-330): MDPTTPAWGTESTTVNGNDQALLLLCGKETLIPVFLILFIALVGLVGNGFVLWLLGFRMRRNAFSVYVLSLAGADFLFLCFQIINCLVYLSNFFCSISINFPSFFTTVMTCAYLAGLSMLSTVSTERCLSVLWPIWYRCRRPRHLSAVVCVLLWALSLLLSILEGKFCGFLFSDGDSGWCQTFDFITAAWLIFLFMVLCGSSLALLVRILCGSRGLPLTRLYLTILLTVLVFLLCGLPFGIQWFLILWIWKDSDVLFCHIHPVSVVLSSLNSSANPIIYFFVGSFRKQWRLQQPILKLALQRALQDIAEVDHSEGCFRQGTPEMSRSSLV
# From the text: This assay measures compound inhibition of β-Arrestin recruitment, which is part of the G protein-independent pathway that results from the ligand-activated GPCR phosphorylation by specific GPCR kinases. The PathHunter CHO-K1 MRPGRX2 β-Arrestin Cell line stably expressing ProLink tagged MRGPRX2 and Enzyme Acceptor Tagged β-Arrestin was purchased from Eurofins DiscoverX, (Fremont, CA).
# The cells were maintained in culture medium from the Europhins DiscoverX Cell Culture Kit-107 which includes FBS, hygromycin B and G418. For the assay, the cells were harvested and were resuspended with Cell Plating Reagent 2 (Eurofins DiscoverX). Cells were added 10000 cells in 25 μL/well to a 384-well black cell culture plate (Greiner VWR, Radnor, PA) which contained 125 nL/well of compound at a selected serially diluted concentration range or DMSO. The plate was incubated at 37° C. with 5% CO2 for 1 h. 2 μL/well of agonist Cortistatin 14 was diluted in Protein Dilution Buffer, (Eurofins DiscoverX) for a final concentration of 0.25 μM, was added and the plate was incubated at 37° C. with 5% CO2 for 90 min. 14 μL/well of Detection Reagent Mix (PathHunter Detection Kit, Eurofins DiscoverX) was added to the plates and further incubated for 1 h in the dark. Plates were read on the PHERAstar microplate reader (BMG Labtech Cary, NC) measuring luminescence 0.1 to 1 s per well. Data was normalized using DMSO only wells and wells with high concentration of reference antagonist as controls. Compound IC50 curves were globally fitted with 3- or 4-parameter Hill equation in a Genedata Screener (Genedata Basel, Switzerland).
# [2] = biological target: T1, MRGPRX2; experiment: MRGPRX2 IP1 HTRF assay; parameters: host or cells: CHO-K1; settings: CHO-K1 cells stably expressing human MRGPRX2; IP1 accumulation; agonist Cortistatin 14 1 μM
# Method: This assay measures compound inhibition of myo-Inositol 1 phosphate (IP1) accumulation in CHO-K1 cells. Chinese hamster ovary (CHO-K1) cells stably expressing human MRGPRX2 were purchased from GenScript (Piscataway, NJ).
# For the HTRF IP1 determination, an IP-One GqKit (Perkin Elmer Cisbio, Waltham, MA), which includes all reagents and buffers in this protocol, was used. The cells were maintained in culture medium (Ham's F-12K) containing 10% (v/v) FBS, and 200 μg/mL Zeocin. For the assay, the cells were harvested and resuspended in culture medium with 2% FBS and without Zeocin, then were passed through a 40 μm filter. Cells were added at 20000 cells in a 5 μL/well to a 384-well white small volume cell culture plate (Greiner VWR, Radnor, PA) which contained 50 nL/well of test compound serially diluted at a selected concentration range in DMSO. 5 μL/well of prepared 2× Stimulation Buffer 2 was then added to plates and was incubated at 37° C. with 5% CO2 for 1 h. 5 μL/well of agonist Cortistatin 14 (Bio-TechneR&D Systems, Minneapolis, MN) in 1× Stimulation Buffer 2, for a 1 μM final concentration, was then added to plates and incubated at 37° C. with 5% CO2 for 1 h. 6 μL/well of 1:20 diluted Detection Reagent Mix (d2 and Cryptate) was added to the plates and incubated for 1 h in the dark. Plates were read on the PHERAstar microplate reader (BMG Labtech Cary, NC) to determine the HTRF ratio of the acceptor and donor emission signals. The IP1 concentrations were calculated from a standard curve following the IP-One GQ kit instructions. Wells with DMSO only and wells with high concentration of reference antagonist were used as controls for normalization. Compound IC50 curves were globally fitted with 3- or 4-parameter Hill equation in a Genedata Screener (Genedata Basel, Switzerland).
# [3] = biological target: T1, MRGPRX2; experiment: MRGPRX2 FLIPR calcium mobilization assay; parameters: host or cells: CHO-K1; settings: CHO-K1 cells stably expressing human MRGPRX2; Ca2+ release; agonist Cortistatin-14 at EC80
# Method: Chinese hamster ovary (CHO-K1) cells stably expressing human MRGPRX2 were purchased from Genescript (Piscataway, NJ). The cells were maintained in culture medium (Ham's F-12K) containing 10% (v/v) FBS, 200 μg/mL Zeocin, 100 units/mL penicillin G and 100 μg/mL streptomycin (Life Technologies, Carlsbad, CA). For the assay, the cells were harvested and resuspended with culture medium without Zeocin before plating at 8000 cells per well in 20 μL in 384-well black clear bottom cell culture plates (VWR, Radnor, PA). After 24 hour culture at 37° C. and 5% CO2, the cells were loaded with 20 μL/well of calcium dye (FLIPR Calcium 6 Assay Kit, Molecular Devices, San Jose, CA) diluted in loading buffer (1× Hank's Balanced Salt Solution (HBSS), 5 mM probenecid, 20 mM 4-(2-hydroxyethyl)-1-piperazineethanesulfonic acid (HEPES), pH 7.4, VWR, Radnor, PA) followed with 45 min incubation at 37° C. and 40 min. at r.t. in the dark. Cells were then treated with the addition of 10 uL/well test compounds with a range of increasing concentrations diluted in the assay buffer (1×HBSS, 20 mM HEPES, pH 7.4, VWR, Radnor, PA) with FLIPR Penta (Molecular Devices. San Jose, CA) and incubated for 30 min. at r.t. Ca^2+ release was measured with FLIPR Penta with 10 s basal fluorescence measurement, then 12.5 μL of 5× agonist Cortistatin-14 (Tocris, Minneapolis, MN) at final concentration corresponding to the EC80 were added followed with continued fluorescence signal monitoring for an additional 110 s. The base line adjusted (median of first 10 s base line) max value of the Relative Fluorescence Unit (RFU) was plotted against compound concentrations. Wells with no compound were served as the positive controls, and wells with high concentration of reference antagonist were used as negative controls. IC50 curves were globally fitted with 3- or 4-parameter Hill equation in a Genedata Screener (Genedata Basel, Switzerland).
Compound,IC50 [1],IC50 [2],IC50 [3]
"FC(F)(F)c1cc(N[C@H]2CCC[C@@H](Nc3nnc4ccccn34)C2)c2cc(Cl)ccc2n1 [Example 24, (1R,3S)-N^1-([1,2,4]Triazolo[4,3-a]pyridin-3-yl)-N^3-(6-chloro-2-(trifluoromethyl)quinolin-4-yl)cyclohexane-1,3-diamine]",0.1 to 100 nM,0.1 to 100 nM,0.1 to 100 nM
"Cc1ccc2nc(C(F)(F)F)cc(N[C@H]3CCC[C@@H](Nc4nccc5ncn(C)c45)C3)c2c1 [Example 17, (1S,3R)-N^1-(6-Methyl-2-(trifluoromethyl)quinolin-4-yl)-N^3-(3-methyl-3H-imidazo[4,5-c]pyridin-4-yl)cyclohexane-1,3-diamine]",0.1 to 100 nM,0.1 to 100 nM,0.1 to 100 nM
"Cn1c(N[C@@H]2CCC[C@H](Nc3cc(C(F)(F)F)nc4ccc(Cl)cc34)C2)nc2cccnc21 [Example 21, (1S,3R)-N^1-(6-Chloro-2-(trifluoromethyl)quinolin-4-yl)-N^3-(3-methyl-3H-imidazo[4,5-b]pyridin-2-yl)cyclohexane-1,3-diamine]",0.1 to 100 nM,0.1 to 100 nM,0.1 to 100 nM
"Cn1cnc2ccnc(N[C@H]3CC[C@@H](Nc4cc(C(F)(F)F)nc5ccc(Cl)cc45)CC3)c21 [Example 7, (1s,4s)-N^1-(6-Chloro-2-(trifluoromethyl)quinolin-4-yl)-N^4-(3-methyl-3H-imidazo[4,5-c]pyridin-4-yl)cyclohexane-1,4-diamine]",–,0.1 to 100 nM,0.1 to 100 nM
"Cn1c(N[C@@H]2CCC[C@H](Nc3cc(C(F)(F)F)nc4ccc(Cl)cc34)C2)nc2cnccc21 [Example 32, (1S,3R)-N^1-(6-Chloro-2-(trifluoromethyl)quinolin-4-yl)-N^3-(1-methyl-1H-imidazo[4,5-c]pyridin-2-yl)cyclohexane-1,3-diamine]",–,0.1 to 100 nM,0.1 to 100 nM
"Fc1ccc2nc(C(F)(F)F)cc(N[C@H]3CCC[C@@H](Nc4nccn5cncc45)C3)c2c1 [Example 28, (1S,3R)-N^1-(6-fluoro-2-(trifluoromethyl)quinolin-4-yl)-N^3-(imidazo[1,5-a]pyrazin-8-yl)cyclohexane-1,3-diamine]",–,0.1 to 100 nM,0.1 to 100 nM
"FC(F)(F)c1cc(N[C@H]2CCC[C@@H](Nc3nccn4cncc34)C2)c2cc(Br)ccc2n1 [Example 29, (1S,3R)-N^1-(6-bromo-2-(trifluoromethyl)quinolin-4-yl)-N^3-(imidazo[1,5-a]pyrazin-8-yl)cyclohexane-1,3-diamine]",–,0.1 to 100 nM,0.1 to 100 nM
"FC(F)(F)c1cc(N[C@H]2CCC[C@@H](Nc3cc(N4CCOCC4)ccn3)C2)c2cc(Cl)ccc2n1 [Example 3, (1S,3R)-N^1-(6-Chloro-2-(trifluoromethyl)quinolin-4-yl)-N^3-(4-morpholinopyridin-2-yl)cyclohexane-1,3-diamine]",–,100 to 1000 nM,100 to 1000 nM
"FC(F)(F)c1cc(N[C@H]2CCC[C@@H](Nc3nccn4nccc34)C2)c2cc(Cl)ccc2n1 [Example 30, (1S,3R)-N^1-(6-Chloro-2-(trifluoromethyl)quinolin-4-yl)-N^3-(pyrazolo[1,5-a]pyrazin-4-yl)cyclohexane-1,3-diamine]",–,0.1 to 100 nM,0.1 to 100 nM
"Cn1cnc2ncnc(N[C@@H]3CCC[C@H](Nc4cc(C(F)(F)F)nc5ccc(Cl)cc45)C3)c21 [Example 8, (1S,3R)-N^1-(6-Chloro-2-(trifluoromethyl)quinolin-4-yl)-N^3-(7-methyl-7H-purin-6-yl)cyclohexane-1,3-diamine]",–,0.1 to 100 nM,0.1 to 100 nM
"FC(F)(F)c1cc(N[C@H]2CCC[C@@H](Nc3nccc4cnccc34)C2)c2cc(Cl)ccc2n1 [Example 6, (1S,3R)-N^1-(6-Chloro-2-(trifluoromethyl)quinolin-4-yl)-N^3-(2,6-naphthyridin-1-yl)cyclohexane-1,3-diamine]",–,100 to 1000 nM,0.1 to 100 nM
"FC(F)(F)c1cc(N[C@H]2CCC[C@@H](Nc3ccccn3)C2)c2cc(Cl)ccc2n1 [Example 12, (1S,3R)-N^1-(6-Chloro-2-(trifluoromethyl)quinolin-4-yl)-N^3-(pyridin-2-yl)cyclohexane-1,3-diamine]",–,100 to 1000 nM,0.1 to 100 nM
Cn1ncc2c(N[C@@H]3CCC[C@H](Nc4cc(C(F)(F)F)nc5ccc(Cl)cc45)C3)ncnc21 [Example 31],–,0.1 to 100 nM,0.1 to 100 nM
"Cn1ncc2ccnc(N[C@@H]3CCC[C@H](Nc4cc(C(F)(F)F)nc5ccc(Cl)cc45)C3)c21 [Example 2, (1S,3R)-N^1-(6-Chloro-2-(trifluoromethyl)quinolin-4-yl)-N^3-(1-methyl-1H-pyrazolo[3,4-c]pyridin-7-yl)cyclohexane-1,3-diamine]",–,100 to 1000 nM,0.1 to 100 nM
"FC(F)(F)c1cc(N[C@H]2CCC[C@@H](Nc3nnc4n3CCC4)C2)c2cc(Cl)ccc2n1 [Example 34, (1S,3R)-N^1-(6-Chloro-2-(trifluoromethyl)quinolin-4-yl)-N^3-(6,7-dihydro-5H-pyrrolo[2,1-c][1,2,4]triazol-3-yl)cyclohexane-1,3-diamine]",–,100 to 1000 nM,0.1 to 100 nM
"FC(F)(F)c1cc(N[C@H]2CCC[C@@H](Nc3nccc4nccn34)C2)c2cc(Cl)ccc2n1 [Example 18, (1S,3R)-N^1-(6-Chloro-2-(trifluoromethyl)quinolin-4-yl)-N^3-(imidazo[1,2-c]pyrimidin-5-yl)cyclohexane-1,3-diamine]",0.1 to 100 nM,0.1 to 100 nM,–
"FC(F)(F)c1cc(N[C@H]2CCC[C@@H](Nc3ccnc4ncccc34)C2)c2cc(Cl)ccc2n1 [Example 27, (1S,3R)-N^1-(6-Chloro-2-(trifluoromethyl)quinolin-4-yl)-N^3-(1,8-naphthyridin-4-yl)cyclohexane-1,3-diamine]",–,100 to 1000 nM,0.1 to 100 nM
